Results taken from PMC7540184 (Journal of natural products, 2020).

Tests used:
Type in all cases: cell-based, human
BT-549 cells = test: Intracellular Ca2+ imaging; settings: BT-549, 150 nM and 500 nM, after 3 h, sustained at 6 h
[1] = test system: BT-549 cells with NCX1 knockout; test: Sensitivity of BT-549 cells after CRISPR knockout of NCX1; settings: inducible Cas9, three sgRNAs targeted to NCX1
MDA-MB-231 cells = test: Intracellular Ca2+ imaging; settings: MDA-MB-231, 150 nM

## C[C@@H]1C[C@H](O)[C@]2(O)O[C@@H]3C[C@@]4(C=O)[C@@H](CC[C@@H]5[C@@H]4CC[C@]4(C)[C@@H](C6=CC(=O)OC6)CC[C@]54O)C[C@H]3O[C@@H]2O1 [calotropin (9), Calotropin]
BT-549 cells
  mean intracellular Ca2+ fluorescence compared to vehicle-treated cells: significantly increased
[1]
  effect of removing NCX1 on sensitivity of BT-549 cells: did not reduce the sensitivity
MDA-MB-231 cells
  change in Ca2+ fluorescence relative to BT-549 cells: significantly less
